From US20220202739A1, “ENDOCANNABINOID MIMETIC AND ANTI-INFLAMMATORY COMPOUND CONTAINING COMPOSITIONS, METHODS OF PREPARATION AND USES THEREOF” (priority 2019, published 2022)
Like-named read-outs stand apart in the source and are kept apart here.

System: TRPA1
Assay: Gene expression custom microarray, human skin fibroblasts (Example 1): TRPA1
Assay type: cell-based
Conditions: for fold induction at 10 µM: Skin fibroblast, read-out: TRPA1↑ gene expression, fold increase or decrease vs untreated cells
Description: Cell cultures: A human skin fibroblast cell culture (or cultures) was obtained through the Coriell Cell Repository from the National Institute on Aging Cell Repository (Camden, N.J.), or Promocell GmbH (Heidelberg, Germany). The initial culture was selected from the following cell lines: AG13066, AG11557, AG11796 or GM03651E. The cell lines were derived from donors as follows:
Experimental phase: When the appropriate quantity of cells had been grown, they were detached as described above, but at the final step were seeded into each well of one or more 6 well dishes. Each well received 2 ml of the cell suspension so they were seeded equally. The dishes were returned to the incubator until 85-95% confluency was reached.
It is at this stage that all wells were rinsed in PBS after aspirating the growth media. The compound(s) to be tested were previously mixed into a suitable solvent (e.g., DMSO or ethanol) that can be diluted to the desired concentration of test compound (10 μl) in the culture wells without exceeding maximum solvent concentrations and adversely effecting cell viability, and mixed with basal media. NOTE: Standard maximum levels of solvent are 0.1% for DMSO and 0.5% for ETOH. The concentration of each test compound is found in Tables 1 & 2.
Every 2 wells on the 6 well plate served as a biological replicate for the purposes of RNA isolation and genetic expression evaluations making each 6 well dish an n=3 for the test compound(s) contained in the media. Negative control plates (no test compound(s) and only basal media) were also generated. The plates were returned to the incubator for 24 hrs.
At the end of the 24 hr time period, the plates were removed from the incubator, the test media aspirated, and the cells rinsed with PBS. RNA isolation is performed using the BioRad Aurum Total RNA Mini Kit (Hercules, Calif.) per manufacturer's protocol; which is described, in brief, below: • Add 350 μl of lysis buffer to each well. Pipet multiple times to ensure thorough lysis. Add lysed cells to the collection tube. • Add 350 μl of 70% ETOH to the collection tube and mix thoroughly. • Pipet the generated lysate onto the spin column placed in a new 2 ml tube. Centrifuge for 30 sec between 8,000 and 10,000 g. • Place the spin column containing the now bound RNA, in a new 2 ml tube. Add 700 μl of low stringency wash solution to the spin column. Centrifuge for 30 sec between 8,000 and 10,000 g. Discard the flow through and replace spin column. • Add 80 μl of DNase I dilution to the spin column and incubate at room temperature for 15 minutes. • Add 700 μl of high stringency wash solution to the column and centrifuge for 30 sec between 8,000 and 10,000 g. Discard flow through. • Add 700 μl of low stringency wash solution to the column and centrifuge for 60 sec between 8,000 and 10,000 g. Discard flow through. • Centrifuge for 2 minutes to remove residual wash solution. • Transfer spin column to new 1.5 ml collection tube and add 80 μl of elution solution to the column. Allow 1 minute for saturation of the membrane and then centrifuge for 2 minutes to complete the RNA elution. • Quantify the quantity of RNA and store at −20 C° until use (no more than 1 month)
The genes tested were: • Cannabinoid receptor 1 (CB1(CNR1)) • Cannabinoid receptor 2 (CB2 (CNR2)) • Fatty acid amide hydrolase (FAAH) • Monoacylglycerol lipase (MGLL, i.e., MAGL) • Peroxisome proliferator-activated receptor gamma (PPARG) • Nuclear factor kappa-light-chain-enhancer of activated B cells (NFκβ) • Interleukin 1 Alpha (IL1alpha) • Cyclooxygenase 1 (PTGS1, i.e., COX1) • Transient receptor potential cation channel subfamily A member 1 (TRPA1) • Transient receptor potential cation channel subfamily V member 1 (TRPV1) • Transient receptor potential cation channel subfamily M member 8 (TRPM8) • Hemoglobin Subunit Beta (HBB) REFERENCE GENE • Ribosomal Protein L13a (RPL13A) REFERENCE GENE […]

[1] = human skin fibroblasts, 10 uM, 24 hr

C=C(C)[C@@H]1CCC(C)=C[C@H]1c1c(O)cc(CCCCC)cc1O [CBD, cannabidiol, reference compound]
fold induction at 10 µM (Homo sapiens, 24 h): 2.7

CCCCCCCCCCCCCCCC(=O)NCCO [N-palmitoylethanolamide]
TRPA1↑ gene expression, fold increase or decrease vs untreated cells [1]: 8.2 fold

CC(C)[C@]12O[C@H]1[C@@H]1O[C@]13[C@]1(O[C@H]1C[C@H]1C4=C(CC[C@@]13C)C(=O)OC4)[C@@H]2O [Triptolide]
fold induction at 10 µM [1]: 26.1
